Measurements as given in patent US20200148617A1, “GEMCABENE, PHARMACEUTICALLY ACCEPTABLE SALTS THEREOF, COMPOSITIONS THEREOF AND METHODS OF USE THEREFOR” (GEMPHIRE THERAPEUTICS INC., priority 2017, published 2020).

Experiments:
[1] = Particle size distribution by laser light diffraction (Malvern Mastersizer 2000, Fraunhofer); type: physicochemical; settings: cumulative volume
Method: In some embodiments, the particle size distribution and the PSD90 of a compound of the invention is determined by the laser light diffraction particle size distribution analysis. The particle size distribution is determined in accordance with the Fraunhofer light diffraction method. In this method, a coherent laser beam passes through the sample and the resulting diffraction pattern is focused on a multi-element detector. Since the diffraction pattern depends, among other parameters, on particle size, the particle size distribution can be calculated based on the measured diffraction pattern of the sample. The method is described in more detail in USP38-NF33, <429> Light Diffraction Measurement of Particle Size.
The particle size distribution was determined in accordance with the Fraunhofer light diffraction method. A coherent laser beam was passed through the sample and the resulting diffraction pattern was focused on a multi-element detector. Because the diffraction pattern depends, among other parameters, on particle size, the particle size distribution (PSD) was calculated based on the measured diffraction patter of the sample.
Stock dispersion solution was prepared by adding a few drops of the dispersing aid (e.g., 1% w/w solution of a detergent in white spirit such as Span 80, Fluka (85548-250 ml)) to an appropriate amount of substance and mixed carefully. The dispersion was then slowly diluted to a final volume of about 10 ml while vortexing. The suspension cell of the instrument (Malvern Mastersizer 2000 equipped with Hydro 2000S sample dispersion unit) was filled with dispersion medium and a background measurement was taken. […] The cumulative volume distribution was determined in accordance with the instrument's instruction manual.
The PSD10, PSD50, and PSD90 values were determined from the cumulative volume distribution of each measurement. Values smaller than 10 μm were reported to one decimal place. Results larger than 10 μm were reported as single digit values. Sample parameters used in analysis are shown below: […]

[2] = 12-week placebo-controlled study of 600 mg QD in hypercholesterolemia patients on statins: safety and tolerability; type: in vivo; settings: add-on to highest doses of background statins
Method: High-risk patients including some, but not all those with heterozygous familial hypercholesterolemia (HeFH) or atherosclerotic cardiovascular disease (ASCVD) on appropriate diet and stable statin therapy for at least 12 weeks and LDL-C ≥100 mg/dL (2.59 mmol/L) and triglycerides <500 mg/dL (5.65 mmol/L) were randomized into a 12-week, placebo-controlled, parallel-group, double-blind study to assess the efficacy of gemcabene calcium salt hydrate Crystal Form 1 (PSD90=52 μm) 600 mg (300-mg Tablet D×2) QD on LDL-C and other lipoproteins and hsCRP (high-sensitivity C-reactive protein). Safety and tolerability were also evaluated. The patients were stratified by high- or moderate-intensity statin therapy, with or without ezetimibe, with a target of 52 patients (26 patients on 600 mg gemcabene calcium salt hydrate Crystal Form 1 as administered by 2× Tablet D and 26 patients on placebo (“placebo”)) in each stratum. […] Mean baseline LDL-C for all patients was approximately 134 mg/dL (3.48 mmol/L) with most patients in the high-intensity statin stratum on atorvastatin and most patients in the moderate-intensity stratum on either simvastatin or atorvastatin.
33 of 54 patients (61.1%) in the Tablet D group and 24 of 51 patients (47.1%) in the placebo group who reported at least one AE during the study. The most prevalent AEs were those associated with infections. […]

[3] = system: patients with hypercholesterolemia on stable statins; test: 12-week placebo-controlled study of 600 mg QD in hypercholesterolemia patients on stable moderate and high-intensity statins: atherogenic and inflammatory biomarkers; type: in vivo, human; settings: add-on to background statins
Method: High-risk patients including some, but not all those with heterozygous familial hypercholesterolemia (HeFH) or atherosclerotic cardiovascular disease (ASCVD) on appropriate diet and stable statin therapy for at least 12 weeks and LDL-C ≥100 mg/dL (2.59 mmol/L) and triglycerides <500 mg/dL (5.65 mmol/L) were randomized into a 12-week, placebo-controlled, parallel-group, double-blind study to assess the efficacy of gemcabene calcium salt hydrate Crystal Form 1 (PSD90=52 μm) 600 mg (300-mg Tablet D×2) QD on LDL-C and other lipoproteins and hsCRP (high-sensitivity C-reactive protein). Safety and tolerability were also evaluated. […]
Within the study population, an analysis was performed in a subpopulation of patients having mixed dyslipidemia (LDL-C ≥100 mg/dL and triglycerides ≥200 and <500 mg/dL). Eighteen patients (10 (Tablet D×2) patients and 8 placebo patients) having a baseline mean LDL-C level of 142 mg/dL, baseline mean triglyceride level of 247 mg/dL and BMI of 34 kg/m^2 were analyzed (FIG. 48). Although not measured in the subpopulation of this Example, some cardiometabolic patients could have elevated sulphatase-2 (Sulf-2) levels, which are believed to cause reduced Syndecan-1 (also known as “remnant receptor”)-mediated clearance of atherogenic remnant lipoproteins. […]

[4] = Solubility of gemcabene calcium salt Crystal Form 1 by solvent addition method; type: physicochemical
Method: Approximately 20 mg of gemcabene calcium Crystal Form 1 was added to 5×2 mL vials. The solubility in 5 solvents was tested using a solvent addition method. Solvents included acetone, ethanol, ethyl acetate, t-butyl methyl ether (t-BME) and water. Solvent was added in 5 volume (100 μL) aliquots until either dissolution or 2 mL in total had been added. Between each addition, samples were heated to 60° C. (40° C. for acetone and t-BME). Any solids remaining after 24 hours at ambient were analyzed by X-ray powder diffraction (XRPD).

Structure (SMILES): CC(C)(CCCCOCCCCC(C)(C)C(=O)[O-])C(=O)[O-].O.[Ca+2] [6-(5-Carboxy-5-methyl-hexyloxy)-2,2-dimethylhexanoic acid calcium (gemcabene calcium salt) hydrate Crystal Form 1]
- D10 (PSD10) [1]: D10 = 8.9 μm
- D50 (PSD50) [1]: D50 = 24.3 μm
- D90 (PSD90) [1]: D90 = 44.1 μm
- muscle or liver related toxicities [2]: No evidence
- serum hsCRP [3]: decreased
- Solubility ([4]; /-Butyl Methyl Ether (t-BME)): <10000 µg/mL
- Solubility ([4]; Acetone): <10000 µg/mL
- Solubility ([4]; Ethanol): <10000 µg/mL
- Solubility ([4]; Ethyl Acetate): <10000 µg/mL
- Solubility ([4]; Water): 33000 µg/mL
